What all share (format): cell-based
The target of assay [1] is T1, Histone-lysine N-methyltransferase EHMT2 (Homo sapiens, UniProt Q96KQ7).
T1 sequence (Q96KQ7 whole entry): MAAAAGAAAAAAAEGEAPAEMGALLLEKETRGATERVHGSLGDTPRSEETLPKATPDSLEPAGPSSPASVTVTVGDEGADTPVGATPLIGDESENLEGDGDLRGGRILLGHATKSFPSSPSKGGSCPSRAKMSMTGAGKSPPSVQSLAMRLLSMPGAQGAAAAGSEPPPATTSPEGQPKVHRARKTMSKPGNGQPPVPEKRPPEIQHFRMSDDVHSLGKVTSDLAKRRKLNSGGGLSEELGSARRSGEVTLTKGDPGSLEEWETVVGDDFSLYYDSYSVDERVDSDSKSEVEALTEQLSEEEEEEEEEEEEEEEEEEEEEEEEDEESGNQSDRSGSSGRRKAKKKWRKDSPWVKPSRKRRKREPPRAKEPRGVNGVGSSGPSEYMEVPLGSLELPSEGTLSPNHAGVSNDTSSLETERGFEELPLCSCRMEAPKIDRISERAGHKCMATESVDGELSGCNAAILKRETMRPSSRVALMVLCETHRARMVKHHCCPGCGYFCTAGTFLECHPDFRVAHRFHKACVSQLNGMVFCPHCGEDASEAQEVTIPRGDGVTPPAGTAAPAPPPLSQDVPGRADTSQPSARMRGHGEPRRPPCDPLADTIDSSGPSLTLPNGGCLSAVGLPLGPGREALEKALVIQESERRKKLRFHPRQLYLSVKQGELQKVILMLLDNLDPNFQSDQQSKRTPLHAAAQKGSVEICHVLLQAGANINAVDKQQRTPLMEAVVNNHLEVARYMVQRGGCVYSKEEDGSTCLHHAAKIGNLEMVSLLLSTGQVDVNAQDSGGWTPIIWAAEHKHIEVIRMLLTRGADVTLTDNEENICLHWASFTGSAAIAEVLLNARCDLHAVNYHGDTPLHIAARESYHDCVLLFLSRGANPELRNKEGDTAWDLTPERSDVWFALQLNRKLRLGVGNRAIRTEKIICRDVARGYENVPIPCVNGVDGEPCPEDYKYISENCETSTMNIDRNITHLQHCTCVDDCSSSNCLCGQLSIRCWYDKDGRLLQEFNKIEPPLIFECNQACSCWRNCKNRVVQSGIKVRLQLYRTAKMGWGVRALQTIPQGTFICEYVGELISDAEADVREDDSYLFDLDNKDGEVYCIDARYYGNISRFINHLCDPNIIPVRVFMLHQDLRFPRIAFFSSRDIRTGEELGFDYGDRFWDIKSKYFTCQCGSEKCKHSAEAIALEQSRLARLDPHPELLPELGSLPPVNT
Nature of the assay: Inhibition of G9a in human MDA-MB-231 cells assessed as reduction in H3K9me2 level after 2 days by immunofluorescence in-cell western analysis.

For assay [2], the target named is Histone deacetylase. Nature of the assay: Inhibition of HDAC in human HeLa cells using Boc-K(Ac)-AMC as substrate by fluorescence assay.
Assay [3] concerns the target Histone deacetylase. Briefly: Inhibition of HDAC in human A549 cells using Boc-K(Ac)-AMC as substrate by fluorescence assay.
The target in assay [4] is Histone deacetylase. Nature of the assay: Inhibition of HDAC in human K562 cells using Boc-K(Ac)-AMC as substrate by fluorescence assay.

The results in this text go back to ChEMBL document CHEMBL4251690, “Histone Deacetylase Inhibitors as Treatment for Targeting Multiple Components in Cancer Therapy” (ACS Med Chem Lett, 2018).

A word on the IC50: it is the concentration needed to halve the response being measured.

Take `CNC(=O)CCCCC(=O)NCCNc1nc(NC2CCN(C)CC2)c2ccc(OC)cc2n1`: the IC50 in assay [1] came out at 47 µM.
Turning to `COc1ccc2c(NC3CCN(Cc4ccccc4)CC3)nc(NCCNC(=O)CCCCCCC(=O)NO)nc2c1`, the IC50 against Histone deacetylase [2] was 15.33 µM; on Histone deacetylase [3], more than 100 µM; on Histone deacetylase [4], 27.75 µM.
The corresponding values for `COc1ccc2c(NCCNC(=O)CCCCCCC(=O)NO)nc(N3CCCN(C)CC3)nc2c1` are more than 100 µM, more than 100 µM and more than 100 µM.
The corresponding values for `COc1ccc2c(NC3CCN(Cc4ccccc4)CC3)nc(NCCNC(=O)CCCCCC(=O)NO)nc2c1` are 13.8 µM, more than 100 µM and 5.735 µM.
